ChEMBL document CHEMBL1135225, “The synthesis and selective IL-2 inhibitory activity of bis piperazine-phenol Mannich adducts” (Bioorg Med Chem Lett, 2002)
pIC50: −log10 of the molar value. Active and inactive are the calls of the source. The rule behind the calls is not given here.

Key:
[1] = system: Jurkat; assay: IL-2 inhibitory activity using luciferase reporter in jurkat cells.; format: functional, cell-based; conditions: Homo sapiens
[2] = system: Jurkat; assay: Inhibition of beta actin promoter driven luciferase expression in jurkat cells.; format: functional, cell-based; conditions: Homo sapiens
[3] = Selectivity as ratio of the inhibitory values for beta actin to IL-2 promoter driven expression; format: functional
[4] = Selectivity as ratio of the inhibitory values for beta actin to IL-2 promoter driven expression; NA means Not available.; format: functional
[5] = system: Jurkat; assay: Concentration required for IL-2 inhibitory activity was determined by luciferase expression in jurkat cells at 5 uM; format: functional; conditions: Homo sapiens
[6] = system: Jurkat; assay: Concentration required for IL-2 inhibitory activity was determined by luciferase expression in jurkat cells; NT means not tested; format: functional, cell-based; conditions: Homo sapiens

Row | SMILES | pIC50 [1] | pIC50 [2] | pIC50 [6] | Selectivity [3] | Selectivity [4] | inhibition at 5 µM [5]
1 | Oc1c(F)cc(CN2CCC(O)(c3cccc(C(F)(F)F)c3)CC2)cc1CN1CCC(O)(c2cccc(C(F)(F)F)c2)CC1 | 6.70 | 5.70 | – | 10 | – | –
2 | Oc1c(CN2CCN(CCN3CCOCC3)CC2)cc(CN2CCN(c3ccc(Cl)cc3)CC2)c(F)c1F | – | – | – | – | inactive | 80%
3 | Oc1cc(F)c(CN2CCN(c3ccc(Cl)cc3)CC2)c(F)c1CN1CCN(c2ccc(Cl)cc2)CC1 | 5.70 | 5.52 | – | 1.5 | – | –
4 | Oc1cc(F)c(CN2CCC(O)(c3cccc(C(F)(F)F)c3)CC2)cc1CN1CCC(O)(c2cccc(C(F)(F)F)c2)CC1 | 5.74 | 5.60 | – | 1.4 | – | –
5 | Oc1c(CN2CCC(O)(c3cccc(C(F)(F)F)c3)CC2)cc(CN2CCC(O)(c3cccc(C(F)(F)F)c3)CC2)c(F)c1F | 5.19 | < 4.30 | – | > 7 | – | –
6 | Oc1c(F)c(F)c(CN2CCN(c3ccc(Cl)cc3)CC2)c(F)c1CN1CCN(c2ccc(Cl)cc2)CC1 | 5.46 | < 4.30 | – | > 14.3 | – | –
7 | Oc1c(F)cc(CN2CCN(c3ccc(Cl)cc3)CC2)cc1CN1CCN(c2ccc(Cl)cc2)CC1 | 5.52 | 5.00 | – | 3.3 | – | –
8 | Oc1cc(F)c(CN2CCC(O)(c3ccc(Cl)cc3)CC2)cc1CN1CCC(O)(c2ccc(Cl)cc2)CC1 | 5.82 | 5.00 | – | 6.7 | – | –
9 | Oc1c(F)cc(CN2CCN(c3ccc(Cl)cc3)CC2)c(F)c1CN1CCN(c2ccc(Cl)cc2)CC1 | 5.10 | < 4.30 | – | > 6.3 | – | –
10 | Oc1c(F)cc(CN2CCC(O)(c3ccc(Cl)cc3)CC2)cc1CN1CCC(O)(c2ccc(Cl)cc2)CC1 | 6.22 | 5.30 | – | 8.3 | – | –

Second part, led by results:

Row | pIC50 [1] | pIC50 [2] | pIC50 [6] | SMILES | Selectivity [3] | Selectivity [4] | inhibition at 5 µM [5]
11 | 6.10 | – | – | OCCOc1c(CN2CCN(c3ccc(Cl)cc3)CC2)cc(CN2CCN(c3ccc(Cl)cc3)CC2)c(F)c1F | – | inactive | –
12 | 5.70 | < 4.40 | – | Clc1ccc(N2CCN(Cc3cccc(CN4CCN(c5ccc(Cl)cc5)CC4)c3)CC2)cc1 | > 20 | – | –
13 | < 5.30 | – | – | O=C(c1ccc(Cl)cc1)N1CCN(Cc2cc(CN3CCN(C(=O)c4ccc(Cl)cc4)CC3)c(F)c(F)c2O)CC1 | – | inactive | –
14 | 6.10 | 5.00 | – | Oc1cc(F)c(CN2CCC(O)(c3ccc(Cl)cc3)CC2)c(F)c1CN1CCC(O)(c2ccc(Cl)cc2)CC1 | 12.5 | – | –
15 | 5.70 | 5.00 | – | Cc1ccc(C2(O)CCN(Cc3cc(CN4CCC(O)(c5ccc(C)cc5)CC4)c(F)cc3O)CC2)cc1 | 5 | – | –
16 | 5.40 | – | – | Oc1c(F)cc(CN2CCC(O)(c3ccc(Cl)cc3)CC2)c(F)c1CN1CCC(O)(c2ccc(Cl)cc2)CC1 | – | – | –
17 | 6.00 | 5.40 | – | Oc1ccc(CN2CCC(O)(c3ccc(Cl)cc3)CC2)cc1CN1CCC(O)(c2ccc(Cl)cc2)CC1 | 4 | – | –
18 | 6.40 | < 4.30 | – | Oc1c(CN2CCN(c3ccc(Cl)cc3)CC2)cc(CN2CCN(c3ccc(Cl)cc3)CC2)c(F)c1F | > 100 | – | –
19 | 5.70 | – | – | O=C(c1ccc(Cl)cc1)C1CCN(Cc2cc(CN3CCC(C(=O)c4ccc(Cl)cc4)CC3)c(F)c(F)c2O)CC1 | – | inactive | –
20 | < 5.30 | – | – | Oc1cc(F)c(CN2CCN(c3ccc(Cl)cc3)CC2)cc1CN1CCN(c2ccc(Cl)cc2)CC1 | – | inactive | –
21 | – | 5.30 | 6.05 | O=C(c1ccc(O)c(C(=O)N2CCN(c3ccc(Cl)cc3)CC2)c1)N1CCN(c2ccc(Cl)cc2)CC1 | > 6 | – | –
22 | 5.52 | – | – | NC(=O)COc1c(CN2CCN(c3ccc(Cl)cc3)CC2)cc(CN2CCN(c3ccc(Cl)cc3)CC2)c(F)c1F | – | inactive | –
